# Laboratory results: patent US12600724B2, “Indole alkaloid and preparation method and use thereof” (NANJING UNIVERSITY OF CHINESE MEDICINE, priority 2022, dated 2026)
# What was measured:
# [1] = test system: primary DRG neuron; experiment: Axon growth of primary DRG neurons (immunofluorescence, Neuro J); assay type: cell-based, C57BL/6J mice; conditions: 24 hours
# Procedure: Diabetic peripheral neuropathy involved a sensory neuron first, and a main pathological change was axonal atrophy and degeneration, or even disappearance. […] Therefore, the compounds in the examples were added with the primary DRG neuron to incubate for a certain period of time, then the axon growth of the DRG neuron was detected by immunofluorescence, and an axon length was quantified by Neuro J, so as to evaluate the promotion effect of the compound on the axon growth of the peripheral sensory neuron.
# Primary antibodies of mice anti-β-tubulin III used for fluorescent staining were purchased from Sigma Company, cell culture reagents were all purchased from Gibco Company, and DRG neuronal cells were taken from C57BL/6J mice. Specific experimental steps were as follows: fresh DRG of the C57 mice was extracted to digest into a single-cell suspension and then inoculated into a culture plate for adherent culture overnight, with vinblastine as a positive drug, the to-be-detected compounds S1 to S87 ([…]) synthesized in the above examples were given to incubate for 24 hours, then an original culture medium was removed, 4% paraformaldehyde was added into each well to fix for 15 minutes after PBS washing, the mixture was permeabilized with 0.3% TritonX-100 for 5 minutes and sealed at room temperature with 4% BSA for 1 hour, a primary antibody (1:1000) was incubated at 4° C. overnight, a goat anti-mouse fluorescent secondary antibody (1:300) was incubated at room temperature in the dark for 1 hour, and a sealed slide was imaged by a fluorescence microscope (Leica). According to the image, a total axon length of a single DRG neuron was tracked by a Neuro J plug-in in Image J software, and a multiple of the total axon length relative to that of the blank control group was calculated.
# [2] = test system: STZ-induced type-1 diabetes model mice; experiment: 50% mechanical pain threshold (Von frey), type-1 diabetic peripheral neuropathy mice; assay type: in vivo, C57BL/6J mice; conditions: type-1 mice, S26 46.8 mg/kg/day intragastric, Mean ± SD, n = 6
# Procedure: Type-1 diabetes mice: male 8-week-old C57BL/6J mice were purchased from Beijing Vital River Laboratory Animal Technology Co., Ltd. One week after adaptive feeding, STZ (150 mg/kg) was injected intraperitoneally, and one week later, tail vein blood collection was carried out for blood sugar detection, and the mice with random blood sugar greater than 16 mmol/L were selected. Six weeks after STZ injection, the mice were divided into a control group (non-diabetic mice), a model group (DPN mice) and a S26 administration group (46.8 mg/kg/day) respectively according to body weight and blood sugar, and administrated intragastrically for four weeks continuously. This experiment was based on a principle that claws of rodents would have a withdrawal reflex under mechanical stimulation. A Von frey tactile measuring set was purchased from Ugo Basile Company, and Von frey filaments could provide 0.008 g to 300 g of stimulating force, wherein a thickness of the filaments determined a magnitude of the stimulating force. Specific experimental method: filaments with proper thicknesses were selected to vertically stimulate a skin, and the stimulating force was adjusted by replacing the filaments, until the filaments were bent. One mouse was tested for 6 times to determine a threshold, and a 50% mechanical pain threshold of the mouse was calculated according to 50% threshold=(10^(Xf+k δ))/10000, which was detected weekly before and after administration respectively.
smiles,measurement,setting,value
CC[C@@]12C=C(C(=O)NCC(=O)OCCOCCOCCOCCO)n3c4c(c5ccccc53)CCN(CCC1)[C@H]42 [Compound S26],Promotion of axon growth of the primary DRG neuron compared with the positive drug (in words),[1]; 10 μm,more outstanding effect
same,fold induction at 10 µM,"[1]; Mus musculus, multiple of total axon length of a single DRG neuron relative to blank control group",13.7
same,50% mechanical pain threshold,[2]; week 0 of administration,1.51 ± 0.22^ g
same,50% mechanical pain threshold,[2]; week 1 of administration,1.06 ± 0.34 g
same,50% mechanical pain threshold,[2]; week 2 of administration,0.92 ± 0.24 g
same,50% mechanical pain threshold,[2]; week 3 of administration,0.87 ± 0.15 g
same,50% mechanical pain threshold,[2]; week 4 of administration,0.85 ± 0.23 g
